The subject of data set [1] is MDA-MB-231. Description: Drug uptake in human MDA-MB-231 cells by flow cytometry. In kind it is ADME, cell-based.
Data set [2] has as its system MCF7. Description: Drug uptake in human MCF7 cells by flow cytometry. The class given is ADME, cell-based. (A flow cytometer gives signals particle by particle.)
Data set [3] concerns MCF7. Description: Cytotoxicity against human MCF7 cells by MTT assay. In kind it is functional, cell-based.
Data set [4] relates to MDA-MB-231. The data set can be described thus: Cytotoxicity against human MDA-MB-231 cells MTT assay. The class given is functional, cell-based. On the technique in general: Tetrazolium assays rely on reduction of a dye to a coloured formazan, in cell work by metabolically active cells.
The test system of another data set is HepG2. Description: Cytotoxicity against human HepG2 cells MTT assay. The class given is functional, cell-based.

Molecules are shown by their SMILES. pIC50: −log10 of the molar value.

In general, pIC50 refers to −log10 of the IC50, conventionally taken in molar units.

As for `CC/C=C\C/C=C\C/C=C\CCCCCCCC(=O)N[C@H]1C[C@H](O[C@H]2C[C@](O)(C(=O)CO)Cc3c(O)c4c(c(O)c32)C(=O)c2c(OC)cccc2C4=O)O[C@@H](C)[C@H]1O`, the Drug uptake entry with MDA-MB-231 [1] and with MCF7 [2] was “Dose-dependent effect” each time. The pIC50 in the data set on MCF7 [3] was 5.33; in the data set on MDA-MB-231 [4] it was 5.51; in the data set on HepG2, 5.17.

Consider `COc1cccc2c1C(=O)c1c(O)c3c(c(O)c1C2=O)C[C@@](O)(C(=O)CO)C[C@@H]3O[C@H]1C[C@H](N)[C@H](O)[C@H](C)O1` [DOXORUBICIN], for which the Drug uptake result with MDA-MB-231 [1] and in the data set with MCF7 [2] was “Dose-dependent effect” each time. Further, the pIC50 is 4.99 in the data set on MDA-MB-231 [4] and 4.84 with HepG2.

For the origin of these results see ChEMBL document CHEMBL1138599, “Conjugation with alpha-linolenic acid improves cancer cell uptake and cytotoxicity of doxorubicin” (Bioorg Med Chem Lett, 2009).
